Experimental data taken from US20190350907A1, “METHODS AND PHARMACEUTICAL COMPOSITIONS FOR REDUCING CD95- MEDIATED CELL MOTILITY” (INSERM (INSTITUT NATIONAL DE LA SANTÉ ET DE LA RECHERCHE …, priority 2017, published 2019).

Legend:
[1] = tested on: CD95-mediated Ca2+ signaling pathway in Th17 cells; assay: CD95-mediated Ca2+ response in Th17 cells; type: cell-based, human; conditions: non-toxic concentrations (1 μM), 1 h pre-treatment, cl-CD95L 100 ng/mL, FuraPE3-AM
Description: A. Activated PBLs were loaded with FuraPE3-AM (1 μM) and pre-treated for 1 h with non-toxic concentrations of indicated compounds. T-cells were then stimulated with thapsigargin (1 μM; arrow). Ratio values (R) were normalized to pre-stimulated values (R0) to yield R/R0 values. Data represent means±the SD. B. Th17 cells were sorted from healthy donors and loaded with FuraPE3-AM (1 μM). Th17 cells were pre-treated for 1 h with non-toxic concentrations of ritonavir or diflunisal (1 μM). T-cells were then stimulated with cl-CD95L (100 ng/mL; arrow). Ratio values (R) were normalized to pre-stimulated values (R0) to yield R/R0 values. Data represent means±the SD.
Human PBLs were sorted using flow cytometry cell sorting to isolate Th17 (A) according to their phenotype (CD3+CD4+CXCR5−CCR6+CXCR3−CD45RA−) and Tfh (B) (CD4+CXCR5+ICOS+PD−1+CD45RA−). Cells were pre-incubated with Indicated drugs (1 μM) for 1 h and then stimulated with 100 ng/mL of s-CD95L. [Ca2+]CYT was assessed in Fluo2 LR-AM (3 μM)-loaded cells. Data represent means±the SD of 3 independent experiments.
Peripheral blood mononuclear cells (PBMC) were isolated from buffy-coat by density gradient using lymphocyte separation medium (Eurobio, Les Ulis, France). PBMCs were then subjected to selection using a cocktail of antibody-coated magnetic beads: CCR6^+ CXCR3^−CD4^+ cells (Th17 cells) were sorted with Human Th17 Enrichment kit (STEMCELL Technologies, Grenoble, France). Cell sorting efficiency was evaluated by FACS.
T-cells were loaded with Fura-PE3-AM (1 μM) at room temperature for 30 min in Hank's Balanced Salt Solution (HBSS). After washing, the cells were incubated for 15 min in the absence of Fura-PE3-AM to complete de-esterification of the dye. Cells were placed in a temperature controlled chamber (37° C.) of an inverted epifluorescence microscope (Olympus IX70) equipped with an x40 UApo/340-1.15 W water-immersion objective (Olympus), and fluorescence micrograph images were captured at 510 nm and 12-bit resolution by a fast-scan camera (CoolSNAP fx Monochrome, Photometrics). To minimize UV light exposure, a 4×4 binning function was used. Fura-PE3 was alternately excited at 340 and 380 nm, and the ratios of the resulting images (emission filter at 520 nm) were produced at constant intervals (10 seconds). The Fura-PE3 ratio (Fratio 340/380) images were analyzed offline with Universal Imaging software, including Metafluor and Metamorph. Fratio reflects the intracellular Ca^2+ concentration changes. Each experiment was repeated at least 3 times, and the average of more than 20 single-cell traces per experiment was analyzed.

[2] = tested on: Th17 cells; assay: CD95-mediated migration / endothelial transmigration of Th17 cells (Boyden chamber); type: cell-based, human; conditions: non-toxic concentrations, 1 hour pre-incubation, Boyden chambers
Description: FIG. 3. Drugs inhibit CD95-mediated Ca′ response and cell migration. A. Activated PBLs were loaded with FuraPE3-AM (1 μM) and pre-treated for 1 h with non-toxic concentrations of indicated compounds. T-cells were then stimulated with cl-CD95L (100 ng/mL; arrow). Ratio values (R) were normalized to pre-stimulated values (R0) to yield R/R0 values. Data represent means±the SD. B. Left panel: using Boyden chamber assay, cell migration of parental H9 cells and their counterpart lacking CD95 (CD95-KO) was assessed. Right panel: activated PBLs were pre-incubated in the presence or absence of the indicated drugs for 1 hour using non-toxic concentration and the CD95-mediated cell migration was assessed by Boyden chambers. C. Th17 cells were sorted from blood of healthy donors (peripheral blood mononuclear cell). […] D. Th17 cells were pre-incubated in the presence or absence of the indicated drugs for 1 hour using non-toxic concentration and cell migration was assessed by Boyden chambers. […] To quantify invasion, cells were fixed with methanol and stained with Giemsa. […] For each experiment, invading cells were lysed and absorbance at 560 nm was measured. […] Cell sorting efficiency was evaluated by FACS. […] Transmigrated cells were counted in the lower reservoir by flow cytometry using a standard of 2.5×10^4 fluorescent beads (Flow-count, Beckman Coulter).

[3] = tested on: CD95-mediated Ca2+ signaling pathway in Tfh cells; assay: CD95-mediated Ca2+ response in Tfh cells; type: cell-based, human; conditions: Example 2; signal described for Th17 and circulating Tfh cells
[4] = tested on: Tfh-dependent B cell activation; assay: Tfh-dependent B-cell maturation co-culture (memory B cells with SEB-stimulated Tfh cells, s-CD95L); type: cell-based; conditions: preincubation of Tfh cells

SMILES | effect on CD95-mediated Ca2+ signaling in Th17 cells [1] | effect on endothelial transmigration in Th17 cells [2] | effect on sCD95L-induced Ca2+ response [3] | effect on Tfh-dependent B cell activation [4]
O=C(O)c1cc(-c2ccc(F)cc2F)ccc1O [diflunisal, 5-(2,4-difluorophenyl)-2-hydroxybenzoic acid] | abrogated | abrogated |  | 
CC(C)c1nc(CN(C)C(=O)N[C@H](C(=O)N[C@@H](Cc2ccccc2)C[C@H](O)[C@H](Cc2ccccc2)NC(=O)OCc2cncs2)C(C)C)cs1 [ritonavir, 1,3-thiazol-5-ylmethyl N-[(2S,3S,5S)-3-hydroxy-5-[[(2S)-3-methyl-2-[[methyl-[(2-propan-2-yl-1,3-thiazol-4-yl)methyl]carbamoyl]amino]butanoyl]amino]-1,6-diphenylhexan-2-yl]carbamate] | abrogated | abrogated | abrogated | blocks
